Results: paper PMC10467108, “Of Seven New K^+ Channel Inhibitor Peptides of Centruroides bonito, α-KTx 2.24 Has a Picomolar Affinity for Kv1.2” (Toxins, 2023)
Where two headings read alike, the source gives them in different places. Where a SMILES comes first, the peptide text is derived from it. Bridges are numbered along the chain shown (N, C = ends).

How the values were obtained:
hKv1.2 = biological target: T1, hKv1.2 (Homo sapiens, UniProt P16389); experiment: Whole-cell patch-clamp of Kv1.2 currents in transiently transfected CHO cells; assay type: cell-based; settings: for Kd / Hill coefficient H, Kv1.2 block: Hill fit of RCF vs toxin concentration, n ≥ 3; for Kd: cumulative application, pulses to +50 mV from -120 mV, read-out: Kd for Kv1.2
T1 construct: GFP (C); host or cells: CHO cells, transient transfection (Lipofectamine 2000)
T1 sequence (P16389 whole entry): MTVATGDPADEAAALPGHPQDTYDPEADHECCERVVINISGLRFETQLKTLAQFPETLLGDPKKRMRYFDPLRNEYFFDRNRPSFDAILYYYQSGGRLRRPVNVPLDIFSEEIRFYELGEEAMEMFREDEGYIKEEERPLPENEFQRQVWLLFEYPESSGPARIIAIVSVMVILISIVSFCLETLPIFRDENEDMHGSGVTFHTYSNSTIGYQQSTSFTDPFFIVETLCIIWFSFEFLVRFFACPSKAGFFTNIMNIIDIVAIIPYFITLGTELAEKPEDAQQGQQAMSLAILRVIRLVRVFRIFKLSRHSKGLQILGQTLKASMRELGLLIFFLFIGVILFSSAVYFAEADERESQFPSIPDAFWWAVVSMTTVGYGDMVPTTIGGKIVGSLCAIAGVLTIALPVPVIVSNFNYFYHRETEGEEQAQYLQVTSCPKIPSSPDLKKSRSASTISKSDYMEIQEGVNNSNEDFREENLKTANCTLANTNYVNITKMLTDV
Protocol: (§1) Macroscopic Kv1.1 and Kv1.2 currents were measured in transiently transfected CHO cells. For Kv1.3 current recording, human T lymphocytes were activated by Phytohemagglutinin A (PHA) to increase Kv1.3 channel expression, and micro-pipettes were filled with Ca^2+-free solution to prevent KCa3.1 channel activation. K^+ currents were evoked by applying 15-ms-long depolarization pulses to +50 mV from a holding potential of −120 mV except for Kv1.2, as it has highly variable activation kinetics; therefore, 15–500 ms-long pulses were applied to maximize the open probability of Kv1.2 channel. CboK peptide toxins were dissolved in a freshly prepared extracellular solution and applied to the whole-cell patch-clamped cells using a micro perfusion system at 200 μL/min flow rate.
(§2) CHO cells were transiently transfected by using Lipofectamine 2000 kit (Invitrogen, Carlsbad, CA, USA), as per the manufacturer’s protocol with vector pCMV6-AC-GFP (cat# RG211000 and RC222200; OriGene Technologies, Rockville, MD, USA) encoding hKv1.1 (hKCNA1 gene) or hKv1.2 (hKCNA2 gene) ion channels. Cells were grown under standard conditions in an incubator at 37 °C and 5% CO2 for 24 h. GFP-positive transfected cells were identified by utilizing a Nikon TMS fluorescence microscope (Nikon, Tokyo, Japan) using bandpass filters of 455–495 nm and 515–555 nm for excitation and emission, respectively.
(§3) The patch-clamp technique was used for measuring whole-cell currents in voltage-clamped mode using standard protocols. Electrophysiological recordings were acquired by using Multiclamp 700B amplifier connected to a personnel computer with an Axon Digidata1440 digitizer (Molecular Devices, Sunnyvale, CA, USA). Pipettes were pulled from GC150F-15 borosilicate capillaries (Harvard Apparatus, Kent, UK) having 3−5 MΩ tip resistance in the bath solution. All current recordings were carried out at room temperature (20−25 °C) and only those currents were recorded and subjected to analyses when the leak current at holding potential was <5% of peak current at the test potential. Current traces were lowpass-filtered by utilizing the built-in analog four-pole Bessel filters of the amplifiers and were sampled at 20 kHz which is at least twice the filter cut-off frequency. A gravity-driven perfusion system was used to perfuse the cells with control and test solutions and excess fluid was removed continuously through vacuum suction. The extracellular solution (bath solution) contained 145 mM NaCl, 5.5 mM glucose, 5 mM KCl, 2.5 mM CaCl2, 1 mM MgCl2, and 10 mM HEPES, having pH of 7.35 and an osmolarity between 302 and 308 mOsM/L. Toxins were dissolved in bath solution at different molar concentrations and supplemented with 0.1 mg/mL of bovine serum albumin BSA (Sigma-Aldrich, Budapest, Hungary). The intracellular solution (pipette filling) was comprised of 140 mM KF, 2 mM MgCl2, 1 mM CaCl2, 10 mM HEPES, and 11 mM EGTA, with a pH of 7.22 and an osmolarity of ~295 mOsM/L.
(§4) Generally, to evoke the Kv1.xcurrents, 15-ms-long depolarization pulses to +50 mV from a holding potential of −120 mV were applied, and the current traces were recorded after every 15 s. However, in the case of Kv1.2, due to its variable activation kinetics, the duration of the depolarization pulse was set between 15 and 500 ms to attain the saturated peak current.

hKv1.1 = biological target: T2, hKv1.1 (Homo sapiens, UniProt Q09470); experiment: Whole-cell patch-clamp of Kv1.1 currents in transiently transfected CHO cells; assay type: cell-based; settings: for effect on Kv1.1 currents: 100 nM toxin; for Kd: this study, screened at 100 nM, read-out: Kd Values Kv1.1 (symbol)
T2 construct: host or cells: CHO cells, transient transfection (Lipofectamine 2000)
T2 sequence (Q09470 whole entry): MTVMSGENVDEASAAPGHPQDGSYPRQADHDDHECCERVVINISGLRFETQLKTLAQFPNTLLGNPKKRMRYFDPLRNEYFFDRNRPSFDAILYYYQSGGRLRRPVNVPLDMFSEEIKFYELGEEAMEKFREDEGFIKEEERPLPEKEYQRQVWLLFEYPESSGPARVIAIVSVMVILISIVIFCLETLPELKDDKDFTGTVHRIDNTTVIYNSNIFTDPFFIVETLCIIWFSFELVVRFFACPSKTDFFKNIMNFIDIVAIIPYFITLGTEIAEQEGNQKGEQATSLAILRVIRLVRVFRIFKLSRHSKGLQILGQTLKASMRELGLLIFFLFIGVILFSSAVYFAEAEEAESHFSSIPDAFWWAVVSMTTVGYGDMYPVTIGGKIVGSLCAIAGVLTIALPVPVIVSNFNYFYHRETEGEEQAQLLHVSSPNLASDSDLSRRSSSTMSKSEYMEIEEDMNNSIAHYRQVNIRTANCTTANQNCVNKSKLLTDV
Protocol: as §1, §2, §3, §4

Kv1.3 [1] = biological target: T3, Kv1.3 (Homo sapiens, UniProt P22001); experiment: Whole-cell patch-clamp of Kv1.3 currents in PHA-activated human T lymphocytes; assay type: cell-based
T3 construct: endogenous in cells
T3 sequence (P22001 whole entry): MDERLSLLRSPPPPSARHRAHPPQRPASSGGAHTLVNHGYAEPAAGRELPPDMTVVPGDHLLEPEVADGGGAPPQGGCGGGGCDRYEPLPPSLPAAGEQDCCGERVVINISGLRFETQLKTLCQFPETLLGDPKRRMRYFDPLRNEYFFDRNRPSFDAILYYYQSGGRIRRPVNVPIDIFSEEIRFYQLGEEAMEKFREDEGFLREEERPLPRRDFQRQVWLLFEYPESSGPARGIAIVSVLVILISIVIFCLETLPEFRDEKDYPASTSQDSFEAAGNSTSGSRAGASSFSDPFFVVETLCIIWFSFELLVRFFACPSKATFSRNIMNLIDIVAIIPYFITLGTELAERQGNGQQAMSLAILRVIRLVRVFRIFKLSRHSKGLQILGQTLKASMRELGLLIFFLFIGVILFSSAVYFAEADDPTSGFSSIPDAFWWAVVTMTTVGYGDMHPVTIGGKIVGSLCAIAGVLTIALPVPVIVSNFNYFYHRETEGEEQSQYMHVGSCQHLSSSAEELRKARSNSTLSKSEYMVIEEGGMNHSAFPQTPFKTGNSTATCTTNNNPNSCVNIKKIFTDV
Protocol: as §1
Isochronal RCF data points obtained this way (isochronal RCF = I4ms/I4ms,0 where I4ms,0 and I4ms are the currents at 4 ms time point in the absence and presence of CboK peptides, respectively) at different toxin concentrations were fitted with the Hill equation to obtain concentration–response curves as shown in Figure 6H.
Human peripheral venous blood was acquired from anonymous healthy volunteers from the blood bank. Blood samples were collected by having approval from the Ethical Committee of the Hungarian Medical Research Council (36255-6/2017/EKU). PBMCs were separated by Histopaque 1077 (Sigma-Aldrich, Budapest, Hungary) separation technique, and isolated cells, at the density of 5 × 10^5 cells, were cultured in RPMI 1640 media (Gibco, Grand Island, NY, USA) supplemented with 10% FBS (Sigma-Aldrich, Budapest, Hungary), 2 mM L-glutamine, […], and […] penicillin in a humidified incubator at 37 °C and 5% CO2 for 3–6 days. A measure of 2, 5, or 10 μg/mL of Phytohemagglutinin A (PHA) (Sigma-Aldrich, Budapest, Hungary) was added in cultured cells to activate the PBMCs and upregulate the Kv1.3 expression.
as §3, with “suction.” for “suction. The extracellular solution (bath solution) contained 145 mM NaCl, 5.5 mM glucose, 5 mM KCl, 2.5 mM CaCl2, 1 mM MgCl2, and 10 mM HEPES, having pH of 7.35 and an osmolarity between 302 and 308 mOsM/L. Toxins were dissolved in bath solution at different molar concentrations and supplemented with 0.1 mg/mL of bovine serum albumin BSA (Sigma-Aldrich, Budapest, Hungary). The intracellular solution (pipette filling) was comprised of 140 mM KF, 2 mM MgCl2, 1 mM CaCl2, 10 mM HEPES, and 11 mM EGTA, with a pH of 7.22 and an osmolarity of ~295 mOsM/L.”

Kv1.3 [2] = settings: no reference given; read-out: Kd for Kv1.3 (positive control concentration equivalent to Kd); cited from earlier work
Kv1.1 = biological target: Kv1.1; parameters: method as in 3 sources, ref 40 (CoTx1), 32 (CoTx2) ||| ref 33 = [33]; PMID 26921461; doi:10.1016/j.toxicon.2016.02.017; 33. Olamendi-Portugal T. Bartok A. Zamudio-Zuñiga F. Balajthy A. Becerril B. Panyi G. Possani L.D. Isolation, chemical and functional characterization of several new K+-channel blocking peptides from ||| ref 33 (II-x toxins), 40 (CoTx1); settings: no reference given; read-out: Kd for Kv1.1 (positive control concentration equivalent to Kd); cited from earlier work
Kv1.2 = biological target: Kv1.2; parameters: method as in 7 sources, ref 40 (CoTx1), 33 (II-x toxins), 45, 46 (Maurotoxin) ||| ref 32 (CoTx2), 33 (II-10.9), 34 (Ce3) ||| ref 33 (II-x toxins), 47, 48 (Pi4) ||| ref 33 (II-10.4), 32 (CoTx2) ||| ref 33 = [33]; PMID 26921461; doi:10.1016/j.toxicon.2016.02.017; 33. Olamendi-Portugal T. Bartok A. Zamudio-Zuñiga F. Balajthy A. Becerril B. Panyi G. Possani L.D. Isolation, chemical and functional characterization of several new K+-channel blocking peptides from ||| ...; settings: cited from earlier work
Protocol: Macroscopic Kv1.1 and Kv1.2 currents were measured in transiently transfected CHO cells.

Kv1.2 (Homo sapiens) = Kv1.2 (Homo sapiens) (UniProt P16389); settings: cited from earlier work
Chain of Kv1.2 (Homo sapiens) (P16389 whole entry): as the sequence (P16389 whole entry) above

Chain of CoTx1 (O46028 29-60): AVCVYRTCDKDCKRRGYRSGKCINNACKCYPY

Question: With `CC[C@H](C)[C@H](N)C(=O)N[C@@H](Cc1ccccc1)C(=O)N[C@H](C(=O)N[C@@H](CC(N)=O)C(=O)N[C@H](C(=O)N[C@@H](CCCCN)C(=O)N[C@H]1CSSC[C@@H]2NC(=O)[C@H](CCCCN)NC(=O)CNC(=O)CNC(=O)[C@H](C)NC(=O)[C@H](Cc3c[nH]cn3)NC(=O)[C@H](CCC(N)=O)NC(=O)CNC(=O)[C@H](Cc3ccccc3)NC(=O)[C@H](CCCNC(=N)N)NC(=O)[C@H](CC(=O)O)NC(=O)[C@H](CCCCN)NC(=O)[C@@H]3CSSC[C@@H](C(=O)N[C@@H](Cc4ccc(O)cc4)C(=O)N4CCC[C@H]4C(=O)O)NC(=O)[C@H](CCCCN)NC(=O)[C@H](CSSC[C@H](NC(=O)[C@H](CCC(N)=O)NC(=O)[C@H](CCC(N)=O)NC(=O)[C@@H]4CCCN4C(=O)[C@H](CC(C)C)NC(=O)[C@H](CO)NC1=O)C(=O)N[C@@H](CC(C)C)C(=O)N[C@@H](CCCNC(=N)N)C(=O)N1CCC[C@H]1C(=O)N3)NC(=O)[C@H](CCCCN)NC(=O)CNC(=O)[C@H](CC(N)=O)NC(=O)[C@H]([C@@H](C)CC)NC2=O)C(C)C)[C@@H](C)CC` [CboK5] (H-IFINVKCSLPQQCLRPCKDRFGQHAGGKCINGKCKCYP-OH; disulfide 7-29, 13-34, 17-36 (inferred); N-terminus and C-terminus assumed) as the compound, how does the “inhibition of Kv1.2 current, representative traces” value (hKv1.2; 1 nM toxin, steady-state block, representative cell (Figure 4B, 5A)) read?
Answer: ~ 75%

Question: And the “reversibility of Kv1.2 block” value (hKv1.2; 1 nM toxin, wash with toxin-free control solution)?
Answer: completely reversed

Question: And the Kd (hKv1.2; equilibrium block)?
Answer: 0.000376 µM

Question: And the “Hill coefficient H, Kv1.2 block” value (hKv1.2)?
Answer: 1.2

Question: And the “effect on Kv1.1 currents” value (hKv1.1)?
Answer: did not inhibit

Question: And the Kd (hKv1.1)?
Answer: > 0.1 µM

Question: What about the Kd (Kv1.3 [1]; approximate, concentration-response data not obtained for CboK5, read-out: Kd for Kv1.3 (CboK5)) of the same compound?
Answer: 0.126 µM

Question: With `CC[C@H](C)[C@@H]1NC(=O)[C@@H]2CSSC[C@H](NC(=O)[C@H](CCCCN)NC(=O)[C@@H](NC(=O)[C@H](CC(N)=O)NC(=O)[C@@H](NC(=O)[C@@H](NC(=O)[C@@H](N)[C@@H](C)O)[C@@H](C)O)[C@@H](C)CC)C(C)C)C(=O)N[C@@H](CO)C(=O)N[C@@H](CC(C)C)C(=O)N3CCC[C@H]3C(=O)N[C@@H](CCC(N)=O)C(=O)N[C@@H](CCC(N)=O)C(=O)N[C@H]3CSSC[C@H](NC(=O)[C@H](CCCCN)NC(=O)CNC(=O)[C@H](CC(N)=O)NC1=O)C(=O)N[C@@H](CCCCN)C(=O)N[C@H](C(=O)N[C@@H](Cc1ccc(O)cc1)C(=O)N1CCC[C@H]1C(=O)O)CSSC[C@H](NC(=O)[C@@H]1CCCN1C(=O)[C@H](CCCNC(=N)N)NC(=O)[C@H](CC(C)C)NC3=O)C(=O)N[C@@H](CCCCN)C(=O)N[C@@H](CC(=O)O)C(=O)N[C@@H](CCCNC(=N)N)C(=O)N[C@@H](Cc1ccccc1)C(=O)NCC(=O)N[C@@H](CCC(N)=O)C(=O)N[C@@H](Cc1c[nH]cn1)C(=O)N[C@@H](C)C(=O)NCC(=O)NCC(=O)N[C@@H](CCCCN)C(=O)N2` [CboK6] (H-TTINVKCSLPQQCLRPCKDRFGQHAGGKCINGKCKCYP-OH; disulfide 7-29, 13-34, 17-36 (inferred); N-terminus and C-terminus assumed) as the compound, how does the Kd (hKv1.2; equilibrium block) read?
Answer: 0.000585 µM

Question: What about the “Hill coefficient H, Kv1.2 block” value (hKv1.2) of the same compound?
Answer: 1.3

Question: And the “effect on Kv1.1 currents” value (hKv1.1)?
Answer: does not block

Question: What about the Kd (hKv1.1) of the same compound?
Answer: > 0.1 µM

Question: And the “Hill coefficient H, Kv1.3 block” value (Kv1.3 [1]; Hill fit of isochronal RCF (4 ms), n ≥ 3)?
Answer: 0.77

Question: And the Kd (Kv1.3 [1]; Hill fit of isochronal RCF (current at 4 ms), 15-ms pulses to +50 mV from -120 mV, n ≥ 3, read-out: Kd for Kv1.3)?
Answer: 0.16 µM

Question: With `CC[N+](CC)(CC)CC` [TEA, tetraethylammonium, reference compound] as the compound, how does the Kd (Kv1.3 [2]) read?
Answer: 10000 µM

Question: What about the “reduction in Kv1.1 current by positive control” value (hKv1.1; 0.3 mM TEA, equilibrium block) of the same compound?
Answer: Approximately 50%

Question: And the “reduction in Kv1.3 current by positive control” value (Kv1.3 [1]; 10 mM TEA, equilibrium block)?
Answer: Approximately 50%

Question: What about the Kd (Kv1.1) of the same compound?
Answer: 300 µM

Question: Which results are given for “Charybdotoxin [ChTx, reference compound]”?
Answer: reduction in Kv1.2 current by positive control (hKv1.2; 14 nM ChTx, equilibrium block): Approximately 50%; Kd (Kv1.2; no reference given, read-out: Kd for Kv1.2 (positive control concentration equivalent to Kd)): 0.014 µM

Question: For CoTx1 (from UniProt O46028), which Kd (Kv1.2 (Homo sapiens)) is on record?
Answer: 0.027 µM

Question: For Maurotoxin, which “selectivity for Kv1.2 over Kv1.1, literature” value (Kv1.2; 46 (Maurotoxin), 40 (CoTx1)) is on record?
Answer: ~ 56 fold

Question: What about the “selectivity for Kv1.2 over Kv1.3, literature” value (Kv1.2; 46 (Maurotoxin), 40 (CoTx1)) of the same compound?
Answer: 225 fold

Question: And the Kd (Kv1.2; ref 40 (CoTx1), 33 (II-x toxins), 45, 46 (Maurotoxin), read-out: Kd for Kv1.2, literature)?
Answer: 0.0008 µM
